From PubChem BioAssay AID1259407 (Chemical Carcinogenesis Research Information System (CCRIS), 2018)
The source made the active and inactive calls. No rule for the calls is given here.

System: CCRIS mutagenicity, Ames/micronucleus/aberration tests
Experiment: CCRIS mutagenicity studies
Conditions: Test System: AMES SALMONELLA TYPHIMURIUM, Method: STANDARD PLATE

Measured: mutagenic call

ClCCN(CCCl)c1ccc2ccccc2c1
active: Strain/Indicator: TA100, Metabolic Activation: NONE active; positive | Strain/Indicator: TA100, Metabolic Activation: RAT, LIVER, S-9, AROCLOR 1254 active; positive | Strain/Indicator: TA100, Metabolic Activation: RAT, LIVER, S-9, AROCLOR (10%) active; positive | Strain/Indicator: TA100, Metabolic Activation: RAT, LIVER, S-9, AROCLOR (WITHOUT ADDED COFACTORS) active; positive | Strain/Indicator: TA1535, Metabolic Activation: NONE active; positive | Strain/Indicator: TA1535, Metabolic Activation: RAT, LIVER, S-9, AROCLOR (10%) active; positive
